Experimental data published in US6352958B1, “Cycloimido-substituted benzofused heterocyclic herbicides” (FMC Corporation, priority 1997, dated 2002).

Assays:
Type in all cases: in vivo
[1] = system: soybean (Glycine max var. Winchester); assay: Preemergence herbicidal activity, soybean; details: Rate of Application 0.3 Kg/Ha, examined after 12-17 days
Experimental: (§1) The benzofused heterocyclic compounds of this invention were tested for pre- and postemergence herbicidal activity using a variety of crops and weeds. The test plants included soybean (Glycine max var. Winchester), field corn (Zea mays var. Pioneer 3732), wheat (Triticum aestivum var. Lew), morningglory (Ipomea lacunosa or Ipomea hederacea), velvetleaf (Abutilon theophrasti), green foxtail (Setaria viridis), Johnsongrass (Sorghum halepense), blackgrass (Aloepecurus myosuroides), common chickweed (Stellaria media), and common cocklebur (Xanthium strumarium L.).
(§2) For preemergence testing, two disposable fiber flats (8 cm×15 cm×25 cm) for each rate of application of each candidate herbicide were filled to an approximate depth of 6.5 cm with steam-sterilized sandy loam soil. The soil was leveled and impressed with a template to provide five evenly spaced furrows 13 cm long and 0.5 cm deep in each flat. Seeds of soybean, wheat, corn, green foxtail, and johnsongrass were planted in the furrows of the first flat, and seeds of velvetleaf, morningglory, common chickweed, cocklebur, and blackgrass were planted in the furrows of the second flat. The five-row template was employed to firmly press the seeds into place. A topping soil of equal portions of sand and sandy loam soil was placed uniformly on top of each flat to a depth of approximately 0.5 cm. Flats for postemergence testing were prepared in the same manner except that they were planted 9-14 days prior to the preemergence flats and were placed in a greenhouse and watered, thus allowing the seeds to germinate and the foliage to develop.
(§3) In both pre- and postemergence tests, a stock solution of the candidate herbicide was prepared by dissolving 0.27 g of the compound in 20 mL of water/acetone (50/50) containing 0.5% v/v sorbitan monolaurate. For an application rate of 3000 g/ha of herbicide a 10 mL portion of the stock solution was diluted with water/acetone (50/50) to 45 mL.
(§4) The preemergence flats were initially subjected to a light water spray. The four flats were placed two by two along a conveyor belt (i.e., the two preemergence followed by the two postemergence flats). The conveyor belt fed under a spray nozzle mounted about ten inches above the post-emergent foliage. The preemergent flats were elevated on the belt so that the soil surface was at the same level below the spray nozzle as the foliage canopy of the postemergent plants. The spray of herbicidal solution was commenced and once stabilized, the flats were passed under the spray at a speed to receive a coverage equivalent of 100 L/ha. At this coverage the application rates are those shown in the above table for the individual herbicidal solutions. The preemergence flats were watered immediately thereafter, placed in the greenhouse and watered regularly at the soil surface. The postemergence flats were immediately placed in the green-house and not watered until 24 hours after treatment with the test solution. Thereafter they were regularly watered at ground level. After 12-17 days the plants were examined and the phytotoxicity data were recorded.
(§5) Phytotoxicity data were taken as percent control. Percent control was determined by a method similar to the 0 to 100 rating system disclosed in “Research Methods in Weed Science,” 2nd ed., B. Truelove, Ed.; Southern Weed Science Society; Auburn University, Auburn, Ala., 1977.

[2] = system: green foxtail (Setaria viridis); assay: Preemergence herbicidal activity, green foxtail; details: Rate of Application 0.3 Kg/Ha, examined after 12-17 days
Experimental: as §1, §2, §3, §4, §5

[3] = system: wheat (Triticum aestivum var. Lew); assay: Postemergence herbicidal activity, wheat; details: rate of application 0.3 Kg/Ha, rated after 12-17 days
Experimental: as §1, §2, §3, §4, §5

[4] = system: green foxtail (Setaria viridis); assay: Postemergence herbicidal activity, green foxtail; details: rate of application 0.3 Kg/Ha, rated after 12-17 days
Experimental: as §1, §2, §3, §4, §5

[5] = system: common chickweed (Stellaria media); assay: Postemergence herbicidal activity, chickweed; details: rate of application 0.3 Kg/Ha, rated after 12-17 days
Experimental: as §1, §2, §3, §4, §5

[6] = system: soybean (Glycine max var. Winchester); assay: Postemergence herbicidal activity, soybean; details: rate of application 0.3 Kg/Ha, rated after 12-17 days
Experimental: as §1, §2, §3, §4, §5

[7] = system: field corn (Zea mays var. Pioneer 3732); assay: Preemergence herbicidal activity, corn; details: Rate of Application 0.3 Kg/Ha, examined after 12-17 days
Experimental: as §1, §2, §3, §4, §5

[8] = system: wheat (Triticum aestivum var. Lew); assay: Preemergence herbicidal activity, wheat; details: Rate of Application 0.3 Kg/Ha, examined after 12-17 days
Experimental: as §1, §2, §3, §4, §5

[9] = system: field corn (Zea mays var. Pioneer 3732); assay: Postemergence herbicidal activity, corn; details: rate of application 0.3 Kg/Ha, rated after 12-17 days
Experimental: as §1, §2, §3, §4, §5

[10] = system: blackgrass (Aloepecurus myosuroides); assay: Preemergence herbicidal activity, blackgrass; details: Rate of Application 0.3 Kg/Ha, examined after 12-17 days
Experimental: as §1, §2, §3, §4, §5

[11] = system: velvetleaf (Abutilon theophrasti); assay: Preemergence herbicidal activity, velvetleaf; details: Rate of Application 0.3 Kg/Ha, examined after 12-17 days
Experimental: as §1, §2, §3, §4, §5

[12] = system: velvetleaf (Abutilon theophrasti); assay: Postemergence herbicidal activity, velvetleaf; details: rate of application 0.3 Kg/Ha, rated after 12-17 days
Experimental: as §1, §2, §3, §4, §5

[13] = system: morningglory (Ipomea lacunosa or Ipomea hederacea); assay: Preemergence herbicidal activity, morningglory; details: Rate of Application 0.3 Kg/Ha, examined after 12-17 days
Experimental: as §1, §2, §3, §4, §5

[14] = system: morningglory (Ipomea lacunosa or Ipomea hederacea); assay: Postemergence herbicidal activity, morningglory; details: rate of application 0.3 Kg/Ha, rated after 12-17 days
Experimental: as §1, §2, §3, §4, §5

[15] = system: Johnsongrass (Sorghum halepense); assay: Preemergence herbicidal activity, johnsongrass; details: Rate of Application 0.3 Kg/Ha, examined after 12-17 days
Experimental: as §1, §2, §3, §4, §5

[16] = system: common cocklebur (Xanthium strumarium L.); assay: Preemergence herbicidal activity, cocklebur; details: Rate of Application 0.3 Kg/Ha, examined after 12-17 days
Experimental: as §1, §2, §3, §4, §5

[17] = system: common chickweed (Stellaria media); assay: Preemergence herbicidal activity, chickweed; details: Rate of Application 0.3 Kg/Ha, examined after 12-17 days
Experimental: as §1, §2, §3, §4, §5

[18] = system: Johnsongrass (Sorghum halepense); assay: Postemergence herbicidal activity, johnsongrass; details: rate of application 0.3 Kg/Ha, rated after 12-17 days
Experimental: as §1, §2, §3, §4, §5

[19] = system: common cocklebur (Xanthium strumarium L.); assay: Postemergence herbicidal activity, cocklebur; details: rate of application 0.3 Kg/Ha, rated after 12-17 days
Experimental: as §1, §2, §3, §4, §5

SMILES | PREEMERGENCE HERBICIDAL ACTIVITY (% CONTROL) SOY [1] | PREEMERGENCE HERBICIDAL ACTIVITY (% CONTROL) SETVI [2] | Postemergence herbicidal activity (% control) WHT [3] | Postemergence herbicidal activity (% control) SETVI [4] | Postemergence herbicidal activity (% control) STEME [5] | Postemergence herbicidal activity (% control) SOY [6] | PREEMERGENCE HERBICIDAL ACTIVITY (% CONTROL) CRN [7] | PREEMERGENCE HERBICIDAL ACTIVITY (% CONTROL) WHT [8] | Postemergence herbicidal activity (% control) CRN [9] | PREEMERGENCE HERBICIDAL ACTIVITY (% CONTROL) ALOMY [10] | PREEMERGENCE HERBICIDAL ACTIVITY (% CONTROL) ABUTH [11] | Postemergence herbicidal activity (% control) ABUTH [12] | PREEMERGENCE HERBICIDAL ACTIVITY (% CONTROL) IPOSS [13] | Postemergence herbicidal activity (% control) IPOSS [14] | PREEMERGENCE HERBICIDAL ACTIVITY (% CONTROL) SORHA [15] | PREEMERGENCE HERBICIDAL ACTIVITY (% CONTROL) XANPE [16] | PREEMERGENCE HERBICIDAL ACTIVITY (% CONTROL) STEME [17] | Postemergence herbicidal activity (% control) SORHA [18] | Postemergence herbicidal activity (% control) XANPE [19]
CN(C)C(=O)c1cc2c(Cl)ccc(-n3c(=O)cc(C(F)(F)F)n(C)c3=O)c2o1 [Compound 271] | 80% | 100% | 40% | 70% | 100% | 80% | 90% | 70% | 60% | 80% | 100% | 100% | 100% | 100% | 90% | 100% | 100% | 50% | 
Cn1c(C(F)(F)F)cc(=O)n(-c2ccc(Cl)c3cc(C(C)(C)O)oc23)c1=O [Compound 241] | 60% | 100% | 60% | 100% | 85% | 90% | 95% | 70% | 70% |  | 100% | 100% | 100% | 100% | 100% | 100% | 100% | 70% | 95%
CC(O)c1cc2c(Cl)cc(F)c(-n3c(=O)cc(C(F)(F)F)n(C)c3=O)c2o1 (stereo not drawn) [Compound 240] | 100% | 100% | 95% | 100% | 100% | 95% | 95% | 95% | 100% |  | 100% | 100% | 100% | 100% | 100% | 100% | 100% | 100% | 100%
CC(O)Cc1cc2c(Cl)cc(F)c(-n3c(=O)cc(C(F)(F)F)n(C)c3=O)c2o1 (stereo not drawn) [Compound 243] | 100% | 100% | 70% | 100% | 100% | 95% | 95% | 80% | 95% |  | 100% | 100% | 100% | 100% | 100% | 100% | 100% | 100% | 100%
COC(=O)Cc1nc2c(-n3c(=O)cc(C(F)(F)F)n(C)c3=O)c(F)cc(Br)c2o1 [Compound 49] | 95% | 100% | 70% | 100% | 40% | 95% | 80% | 50% | 80% |  | 100% | 100% | 100% | 100% | 90% | 90% | 20% | 90% | 30%
CCCc1cc2c(Cl)cc(F)c(-n3c(=O)cc(C(F)(F)F)n(C)c3=O)c2o1 [Compound 223] | 100% | 100% | 40% | 100% | 100% | 95% | 80% | 50% | 90% |  | 100% | 100% | 100% | 100% | 100% | 90% | 100% | 100% | 100%
Cn1c(C(F)(F)F)cc(=O)n(-c2ccc(Cl)c3cc(C=O)oc23)c1=O [Compound 265] | 70% | 80% | 40% | 40% | 30% | 70% | 80% | 40% | 60% |  | 90% | 100% | 100% | 100% | 60% | 70% | 20% | 20% | 20%
